Results published in ChEMBL document CHEMBL3886473, “Compounds that are ERK inhibitors” (2016).
pIC50: −log10 of the molar value.

Molecular target: Mitogen-activated protein kinase 1 (Homo sapiens, UniProt P28482)
Experiment: IMAP-FP Assay: Activated ERK2 activity was determined in an IMAP-FP assay (Molecular Devices).

Sequence of Mitogen-activated protein kinase 1 (P28482 whole entry): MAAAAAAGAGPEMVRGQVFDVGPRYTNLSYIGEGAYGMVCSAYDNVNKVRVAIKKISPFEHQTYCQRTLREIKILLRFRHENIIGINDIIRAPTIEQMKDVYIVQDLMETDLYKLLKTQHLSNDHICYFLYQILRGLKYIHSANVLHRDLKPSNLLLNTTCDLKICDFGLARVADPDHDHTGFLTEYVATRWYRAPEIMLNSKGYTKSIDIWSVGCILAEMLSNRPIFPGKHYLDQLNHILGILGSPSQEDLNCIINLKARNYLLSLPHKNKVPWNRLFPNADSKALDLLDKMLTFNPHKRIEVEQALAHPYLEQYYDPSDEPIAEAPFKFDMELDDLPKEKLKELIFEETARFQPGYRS

pIC50: 8.28
Compound: COC(=O)Nc1n[nH]c2cc(NC(=O)N[C@H](C)c3ccc(Cl)c(OC)c3)ncc12
